Data taken from patent publication US10130633B2, “Compounds” (BAYER PHARMA AKTIENGESELLSCHAFT, priority 2013, dated 2018).
Values joined by “and” are separate entries in the source; they are usually repeats but may differ in a detail not shown here. Equal entries are not always repeated. Structures can show the parent of a compound that is named as a salt. Where two headings read alike, the source gives them in different places.

Tests used:
[1] = system: HEK293 FOP control reporter cell line; test: HEK293 FOP control reporter assay; type: cell-based, human; conditions: read-out: HEK FOP IC50
Procedure: (§1) Measurement of luciferase expression was done as described for the constitutive active Wnt assay.
(§2) In a parallel approach, HEK293 cells were cotransfected with the FOP control vector and pcDNA3. The FOP vector is identical to the TOP construct, but it contains instead of functional TCF elements a randomized, non-functional sequence. For this transfection a stable transfected cell line was generated as well, based on selection with Geneticin (1 mg/ml).

wildtype Wnt pathway = test: HEK293 TOP reporter assay, wildtype Wnt pathway stimulated with Wnt-3a; type: cell-based, human
Procedure: as §1
In order to discover and characterize small molecules which inhibit the wildtype Wnt pathway, a cellular reporter assay was employed. […] Stable transfectants were generated by selection with 300 μg/ml Hygromycin.

[2] = system: HCT116 FOP control reporter cell line; test: HCT116 FOPFlash control reporter assay (FOP control vector, non-functional TCF elements); type: cell-based; conditions: HCT116 FOP control reporter cells, 36 hours incubation, luciferase expression
Source text: as §2, with “HCT116” for “HEK293”, “well.” for “well, based on selection with Geneticin (1 mg/ml).”

[3] = system: constitutive active colorectal cancer cell (CRC) Wnt pathway; test: HCT116 TOPFlash cellular reporter assay (Super TopFlash luciferase), constitutive active Wnt pathway; type: cell-based; conditions: for IC50: HCT116 TOP reporter cells, 36 hours incubation, luciferase expression
Procedure: In order to discover and characterize small molecules which inhibit the constitutive active colorectal cancer cell (CRC) Wnt pathway, a cellular reporter assay was employed. […] Stable transfectants were generated by cotransfection with pcDNA3 and selection of stable transfected cells with 1 mg/ml G418.

[4] = Solubility in buffer / aqueous media; type: physicochemical; conditions: pH 6.5, aqueous buffer; buffer at pH6.5
Source text: Some of the compounds of general formula (I) show low solubility in aqueous media and organic solvents. This can affect the possibility to assess the activity of such compounds with the described assays. […] Therefore, the high IC50 value of the compound might be a result of the low solubility.

[5] = HEK293 FOP control cells, EC50 concentration of recombinant Wnt-3a, 16 hours
[6] = HEK293 TOP cells, EC50 concentration of recombinant Wnt-3a, 16 hours; read-out: HEK TOP OncoFlash IC50
[7] = Homo sapiens, HEK293, 16 h; read-out: HEK TOP OncoFlash IC50

C[C@H](C(=O)Nc1cc(C(=O)Nc2ccc(-c3ccc(N(C)C)cc3)nc2)ccc1OC(F)(F)F)N1CCOCC1 (single isomer, unassigned) [Example 115, N-{6-[4-(dimethylamino)phenyl]pyridin-3-yl}-3-{[(2S)-2-(morpholin-4-yl)propanoyl]amino}-4-(trifluoromethoxy)benzamide or N-{6-[4-(dimethylamino)phenyl]pyridin-3-yl}-3-{[(2R)-2-(morpholin-4-yl)propanoyl]amino}-4-(trifluoromethoxy)benzamide]
IC50 [1, 5]: 4700 nM
IC50 (wildtype Wnt pathway; [6]): 52 nM
IC50 [2]: 2200 nM
IC50 [3]: 8.8 nM

COc1ccc(C(=O)Nc2ccc(-c3ccccc3F)nc2)cc1NC(=O)C1(N2CCOCC2)CC1 [Example 80, N-[6-(2-fluorophenyl)pyridin-3-yl]-4-methoxy-3-({[1-(morpholin-4-yl)cyclopropyl]carbonyl}amino)benzamide]
IC50 ([1]; Homo sapiens, HEK293, 16 h): 10000 nM
IC50 (wildtype Wnt pathway; [7]): 150 nM
IC50 ([2]; Homo sapiens, HCT-116, 36 h): ≥ 50000 nM
IC50 ([3]; Homo sapiens, HCT-116, 36 h): 27 nM

COc1ccc(C(=O)Nc2ccc(-c3ccccc3F)nc2)cc1NC(=O)CN1CCOCC1 [Example 1, N-[6-(2-fluorophenyl)pyridin-3-yl]-4-methoxy-3-[(morpholin-4-ylacetyl)amino]benzamide]
IC50 ([1]; Homo sapiens, HEK293, 16 h): ≥ 50000 nM
IC50 (wildtype Wnt pathway; [7]): 3300 nM
IC50 ([2]; Homo sapiens, HCT-116, 36 h): ≥ 50000 nM
IC50 ([3]; Homo sapiens, HCT-116, 36 h): 1140 nM

CN1CCN(CC(=O)Nc2cc(C(=O)Nc3nnc(-c4ccccc4)s3)ccc2OC(F)F)CC1 [Example 40, 4-(difluoromethoxy)-3-{[(4-methylpiperazin-1-yl)acetyl]amino}-N-(5-phenyl-1,3,4-thiadiazol-2-yl)benzamide]
IC50 ([1]; Homo sapiens, HEK293, 16 h): ≥ 50000 nM
IC50 (wildtype Wnt pathway; [7]): 530 nM
IC50 ([2]; Homo sapiens, HCT-116, 36 h): ≥ 50000 nM
IC50 ([3]; Homo sapiens, HCT-116, 36 h): 52.4 nM

NC(=O)c1ccc(C(=O)Nc2nnc(-c3ccccc3)s2)cc1NC(=O)C1(N2CCOCC2)CC1 [Example 56, 2-({[1-(morpholin-4-yl)cyclopropyl]carbonyl}amino)-N-4-(5-phenyl-1,3,4-thiadiazol-2-yl)terephthalamide]
IC50 ([1]; Homo sapiens, HEK293, 16 h): ≥ 50000 nM
IC50 (wildtype Wnt pathway; [7]): 190 nM
IC50 ([2]; Homo sapiens, HCT-116, 36 h): ≥ 50000 nM
IC50 ([3]; Homo sapiens, HCT-116, 36 h): 104 nM

COc1ccc(C(=O)Nc2nnc(-c3ccccc3)s2)cc1NC(=O)CN1CCOCC1 [4-methoxy-3-[(morpholin-4-ylacetyl)amino]-N-(5-phenyl-1,3,4-thiadiazol-2-yl)benzamide]
solubility [4]: < 0.1 µg/mL and < 0.22 µM
IC50 value in the HCT116 TOPFlash assay (in words) ([3]; might be a result of the low solubility): higher than expected

COCc1ccc(C(=O)Nc2nnc(-c3ccccc3)s2)cc1NC(=O)C1(N2CCOCC2)CC1 [Example 43, 4-(methoxymethyl)-3-({[1-(morpholin-4-yl)cyclopropyl]carbonyl}amino)-N-(5-phenyl-1,3,4-thiadiazol-2-yl)benzamide]
IC50 ([1]; Homo sapiens, HEK293, 16 h): ≥ 50000 nM
IC50 (wildtype Wnt pathway; [7]): 110 nM
IC50 ([2]; Homo sapiens, HCT-116, 36 h): ≥ 50000 nM
IC50 ([3]; Homo sapiens, HCT-116, 36 h): 49.1 nM

Nc1ccc(-c2ccc(NC(=O)c3ccc(OC(F)(F)F)c(NC(=O)CN4CCOCC4)c3)cn2)cc1 [Example 126, N-[6-(4-aminophenyl)pyridin-3-yl]-3-[(morpholin-4-ylacetyl)amino]-4-(trifluoromethoxy)benzamide]
IC50 ([1]; Homo sapiens, HEK293, 16 h): ≥ 50000 nM
IC50 (wildtype Wnt pathway; [7]): 36 nM
IC50 ([2]; Homo sapiens, HCT-116, 36 h): ≥ 50000 nM
IC50 ([3]; Homo sapiens, HCT-116, 36 h): 52.5 nM

O=C(CN1CCOCC1)Nc1cc(C(=O)Nc2ccc(-c3ccccc3)nc2)ccc1OC(F)(F)F [Example 15, 3-[(morpholin-4-ylacetyl)amino]-N-(6-phenylpyridin-3-yl)-4-(trifluoromethoxy)benzamide]
IC50 ([1]; Homo sapiens, HEK293, 16 h): ≥ 50000 nM
IC50 (wildtype Wnt pathway; [7]): 48 nM
IC50 ([2]; Homo sapiens, HCT-116, 36 h): ≥ 50000 nM
IC50 ([3]; Homo sapiens, HCT-116, 36 h): 137 nM

COc1ccc(NC(=O)c2ccc(-c3ccccc3F)nc2)cc1NC(=O)C1(N2CCOCC2)CC1 [Example 62, 6-(2-fluorophenyl)-N-[4-methoxy-3-({[1-(morpholin-4-yl)cyclopropyl]carbonyl}amino)phenyl]nicotinamide]
IC50 ([1]; Homo sapiens, HEK293, 16 h): ≥ 50000 nM
IC50 (wildtype Wnt pathway; [7]): 180 nM
IC50 ([2]; Homo sapiens, HCT-116, 36 h): ≥ 50000 nM
IC50 ([3]; Homo sapiens, HCT-116, 36 h): 67.3 nM

O=C(CN1CCOCC1)Nc1cc(NC(=O)c2ncc(-c3ccccc3)s2)ccc1OC(F)(F)F [Example 16, N-{3-[(morpholin-4-ylacetyl)amino]-4-(trifluoromethoxy)phenyl}-5-phenyl-1,3-thiazole-2-carboxamide]
IC50 ([1]; Homo sapiens, HEK293, 16 h): ≥ 50000 nM
IC50 (wildtype Wnt pathway; [7]): 92 nM
IC50 ([2]; Homo sapiens, HCT-116, 36 h): ≥ 50000 nM
IC50 ([3]; Homo sapiens, HCT-116, 36 h): 17.8 nM

CN1CCN(CC(=O)Nc2cc(C(=O)Nc3ccc(-c4ccccc4)cn3)ccc2OC(F)(F)F)CC1 [Example 132, 3-{[(4-methylpiperazin-1-yl)acetyl]amino}-N-(5-phenylpyridin-2-yl)-4-(trifluoromethoxy)benzamide formiate]
IC50 [1, 5]: 11000 nM
IC50 (wildtype Wnt pathway; [6]): 70 nM
IC50 [2]: 20000 nM
IC50 [3]: 35.5 nM

O=C(Nc1ccc(-c2ccccc2F)nc1)c1ccc(OC2CC2)c(NC(=O)C2(N3CCOCC3)CC2)c1 [Example 134, 4-(cyclopropyloxy)-N-[6-(2-fluorophenyl)pyridin-3-yl]-3-({[1-(morpholin-4-yl)cyclopropyl]carbonyl}amino)benzamide]
IC50 ([1]; Homo sapiens, HEK293, 16 h): 12000 nM
IC50 (wildtype Wnt pathway; [7]): 31 nM
IC50 ([2]; Homo sapiens, HCT-116, 36 h): 5200 nM
IC50 ([3]; Homo sapiens, HCT-116, 36 h): 16.6 nM

O=C(CN1CCOCC1)Nc1cc(NC(=O)c2ccc(-c3ccccc3)s2)ccc1OC(F)(F)F [Example 17, N-{3-[(morpholin-4-ylacetyl)amino]-4-(trifluoromethoxy)phenyl}-5-phenylthiophene-2-carboxamide]
IC50 ([1]; Homo sapiens, HEK293, 16 h): ≥ 50000 nM
IC50 (wildtype Wnt pathway; [7]): 33 nM
IC50 ([2]; Homo sapiens, HCT-116, 36 h): ≥ 50000 nM
IC50 ([3]; Homo sapiens, HCT-116, 36 h): 43 nM

O=C(CN1CCOCC1)Nc1cc(NC(=O)c2ccc(-c3ccccc3F)nc2)ccc1OC(F)(F)F [Example 30, 6-(2-fluorophenyl)-N-{3-[(morpholin-4-ylacetyl)amino]-4-(trifluoromethoxy)phenyl}nicotinamide]
IC50 ([1]; Homo sapiens, HEK293, 16 h): ≥ 50000 nM
IC50 (wildtype Wnt pathway; [7]): 1400 nM
IC50 ([2]; Homo sapiens, HCT-116, 36 h): ≥ 50000 nM
IC50 ([3]; Homo sapiens, HCT-116, 36 h): 90.1 nM

CN1CCN(CC(=O)Nc2cc(C(=O)Nc3nnc(-c4ccccc4)s3)ccc2OC(F)(F)F)CC1 [Example 54, 3-{[(4-methylpiperazin-1-yl)acetyl]amino}-N-(5-phenyl-1,3,4-thiadiazol-2-yl)-4-(trifluoromethoxy)benzamide]
IC50 ([1]; Homo sapiens, HEK293, 16 h): ≥ 50000 nM
IC50 (wildtype Wnt pathway; [7]): 130 nM
IC50 ([2]; Homo sapiens, HCT-116, 36 h): 28000 nM
IC50 ([3]; Homo sapiens, HCT-116, 36 h): 104 nM

CS(=O)(=O)Cc1ccc(C(=O)Nc2nnc(-c3ccccc3)s2)cc1NC(=O)C1(N2CCN(C3CC3)CC2)CC1 [Example 48, 3-({[1-(4-cyclopropylpiperazin-1-yl)cyclopropyl]carbonyl}amino)-4-[(methylsulfonyl)methyl]-N-(5-phenyl-1,3,4-thiadiazol-2-yl)benzamide]
IC50 ([1]; Homo sapiens, HEK293, 16 h): ≥ 50000 nM
IC50 (wildtype Wnt pathway; [7]): 130 nM
IC50 ([2]; Homo sapiens, HCT-116, 36 h): ≥ 50000 nM
IC50 ([3]; Homo sapiens, HCT-116, 36 h): 73.7 nM

COCc1ccc(C(=O)Nc2nnc(-c3ccccc3)s2)cc1NC(=O)CN1CCN(C)CC1 [Example 46, 4-(methoxymethyl)-3-{[(4-methylpiperazin-1-yl)acetyl]amino}-N-(5-phenyl-1,3,4-thiadiazol-2-yl)benzamide]
IC50 ([1]; Homo sapiens, HEK293, 16 h): ≥ 50000 nM
IC50 (wildtype Wnt pathway; [7]): 690 nM
IC50 ([2]; Homo sapiens, HCT-116, 36 h): ≥ 50000 nM
IC50 ([3]; Homo sapiens, HCT-116, 36 h): 164 nM

COCc1ccc(C(=O)Nc2nnc(-c3ccccc3)s2)cc1NC(=O)C1(N2CCN(C)CC2)CC1 [Example 45, 4-(methoxymethyl)-3-({[1-(4-methylpiperazin-1-yl)cyclopropyl]carbonyl}amino)-N-(5-phenyl-1,3,4-thiadiazol-2-yl)benzamide hydrochloride (1:1)]
IC50 ([1]; Homo sapiens, HEK293, 16 h): ≥ 50000 nM
IC50 (wildtype Wnt pathway; Homo sapiens, HEK293, 16 h, read-out: HEK TOP OncoFlash IC50): 190 nM
IC50 ([2]; Homo sapiens, HCT-116, 36 h): 26500 nM
IC50 ([3]; Homo sapiens, HCT-116, 36 h): 198 nM
